Tests used:
Type in all cases: biochemical
Abl (h) = Abl (h) (Homo sapiens, UniProt P00519); assay: Abl human kinase assay (glass-fiber filter); details: test concentration of 10^−6M; for inhibition at 1 µM: read-out: C1 score (inhibition of Abl human)
CSK (h) = CSK (h) (Homo sapiens, UniProt P41240); assay: CSK human kinase assay (glass-fiber filter); details: test concentration of 10^−6M; for inhibition at 1 µM: read-out: C2 score (inhibition of CSK human)
Procedure, shortened: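 Radiometric filter-binding assay: human CSK (5-10 mU) with 0.1 mg/ml poly(Glu, Tyr) 4:1 and [γ-33P]-ATP (concentration as required) in 50 mM Tris pH 7.5, 10 mM MnCl2, 10 mM MgAcetate. Incubated 40 minutes at room temperature, stopped with phosphoric acid; substrate-bound 33P counted.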

cSRC (h) = cSRC (h) (Homo sapiens, UniProt P12931); assay: cSRC human kinase assay (glass-fiber filter); details: test concentration of 10^−6M; for inhibition at 1 µM: read-out: C3 score (inhibition of cSRC human)
Procedure, shortened: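 Radiometric assay: kinase and substrate are incubated with [33P]ATP, with the reaction started by MgATP mix. The reaction is spotted on P30 filtermat, washed in 75 mM phosphoric acid and methanol, and the bound 33P is measured by scintillation counting.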

Fes (h) = Fes (h) (Homo sapiens, UniProt P07332); assay: Fes human kinase assay (glass-fiber filter); details: test concentration of 10^−6M; for inhibition at 1 µM: read-out: C4 score (inhibition of Fes human)
Fes (h), sequence (P07332 whole entry): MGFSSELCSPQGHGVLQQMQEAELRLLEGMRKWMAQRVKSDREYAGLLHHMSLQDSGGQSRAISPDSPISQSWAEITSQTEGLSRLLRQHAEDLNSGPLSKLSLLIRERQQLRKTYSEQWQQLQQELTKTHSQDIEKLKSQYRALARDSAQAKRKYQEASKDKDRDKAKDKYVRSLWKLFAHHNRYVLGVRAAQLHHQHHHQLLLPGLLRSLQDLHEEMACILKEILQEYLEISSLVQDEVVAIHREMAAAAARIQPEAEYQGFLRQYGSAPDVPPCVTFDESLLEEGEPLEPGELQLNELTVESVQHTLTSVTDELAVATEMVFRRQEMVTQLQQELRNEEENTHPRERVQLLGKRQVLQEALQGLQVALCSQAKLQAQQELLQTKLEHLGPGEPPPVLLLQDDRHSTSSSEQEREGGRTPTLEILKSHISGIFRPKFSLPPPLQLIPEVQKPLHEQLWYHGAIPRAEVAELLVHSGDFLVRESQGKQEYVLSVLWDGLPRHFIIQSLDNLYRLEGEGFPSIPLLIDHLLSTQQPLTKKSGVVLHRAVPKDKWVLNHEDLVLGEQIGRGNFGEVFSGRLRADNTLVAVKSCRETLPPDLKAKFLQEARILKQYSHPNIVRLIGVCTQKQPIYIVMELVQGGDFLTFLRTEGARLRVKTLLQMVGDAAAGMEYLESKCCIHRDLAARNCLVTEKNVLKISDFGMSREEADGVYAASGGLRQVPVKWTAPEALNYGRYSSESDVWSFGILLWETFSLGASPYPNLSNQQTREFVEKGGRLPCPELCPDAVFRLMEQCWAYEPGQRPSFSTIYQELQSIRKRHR
Procedure, shortened: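 Human Fes (5–10 mU) was incubated with 0.1 mg/ml poly(Glu,Tyr) 4:1 in 8 mM MOPS pH 7.0, 0.2 mM EDTA, 10 mM Mg acetate and [γ-33P]ATP for 40 min at room temperature. The reaction was stopped with phosphoric acid, and substrate phosphorylation was quantified by filter binding and scintillation counting.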

GSK3B (h) = GSK3B (h) (Homo sapiens, UniProt P49841); assay: GSK3β human kinase assay (glass-fiber filter); details: test concentration of 10^−6M; for inhibition at 1 µM: read-out: C8 score (inhibition of GSK3β human)
GSK3B (h), sequence (P49841 whole entry): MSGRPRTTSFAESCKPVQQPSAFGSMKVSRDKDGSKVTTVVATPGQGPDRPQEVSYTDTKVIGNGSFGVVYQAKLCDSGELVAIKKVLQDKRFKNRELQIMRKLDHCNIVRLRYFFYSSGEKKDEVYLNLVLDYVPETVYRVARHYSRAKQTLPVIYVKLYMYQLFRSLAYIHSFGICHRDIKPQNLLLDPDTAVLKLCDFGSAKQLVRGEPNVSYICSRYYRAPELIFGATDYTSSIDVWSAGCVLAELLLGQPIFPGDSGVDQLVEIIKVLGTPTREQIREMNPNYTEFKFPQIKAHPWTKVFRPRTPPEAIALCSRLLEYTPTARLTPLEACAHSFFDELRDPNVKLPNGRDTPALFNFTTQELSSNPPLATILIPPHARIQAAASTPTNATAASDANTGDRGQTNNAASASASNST
Procedure, shortened: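 Human GSK3β (5-10 mU) with 20 μM phospho GS2 peptide, [γ-^33P]ATP, 8 mM MOPS pH 7.0, 10 mM Mg acetate; 40 min at room temperature. Stopped with phosphoric acid; substrate phosphorylation read as filter-bound radioactivity by scintillation counting.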

Lyn (h) = Lyn (h) (Homo sapiens, UniProt P07948); assay: Lyn human kinase assay (glass-fiber filter); details: test concentration of 10^−6M; for inhibition at 1 µM: read-out: C10 score (inhibition of Lyn human)
Lyn (h), sequence (P07948 whole entry): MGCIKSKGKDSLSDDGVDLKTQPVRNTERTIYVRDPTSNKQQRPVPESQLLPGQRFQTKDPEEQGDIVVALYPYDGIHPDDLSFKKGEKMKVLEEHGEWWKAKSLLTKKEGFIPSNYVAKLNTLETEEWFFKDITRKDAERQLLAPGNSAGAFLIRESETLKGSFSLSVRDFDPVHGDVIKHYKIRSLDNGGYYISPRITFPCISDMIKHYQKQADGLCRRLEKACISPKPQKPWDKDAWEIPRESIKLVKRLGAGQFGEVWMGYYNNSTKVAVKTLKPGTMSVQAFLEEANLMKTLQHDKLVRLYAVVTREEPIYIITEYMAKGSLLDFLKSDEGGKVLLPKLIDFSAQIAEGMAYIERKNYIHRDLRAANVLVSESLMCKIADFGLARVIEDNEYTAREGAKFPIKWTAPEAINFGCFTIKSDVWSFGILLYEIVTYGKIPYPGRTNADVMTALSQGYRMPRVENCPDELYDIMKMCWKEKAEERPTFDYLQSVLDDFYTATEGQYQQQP
Procedure, shortened: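 Human Lyn (5-10 mU) phosphorylating poly(Glu,Tyr) 4:1 at 0.1 mg/ml with [γ-33P]ATP (concentration as required) in 50 mM Tris pH 7.5, 10 mM Mg acetate, 40 min at room temperature. Stopped with phosphoric acid; substrate-bound radioactivity counted on glass-fibre filter.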

Yes (h) = Yes (h) (Homo sapiens, UniProt P07947); assay: Yes human kinase assay (glass-fiber filter); details: test concentration of 10^−6M; for inhibition at 1 µM: read-out: C11 score (inhibition of Yes human)
Yes (h), sequence (P07947 whole entry): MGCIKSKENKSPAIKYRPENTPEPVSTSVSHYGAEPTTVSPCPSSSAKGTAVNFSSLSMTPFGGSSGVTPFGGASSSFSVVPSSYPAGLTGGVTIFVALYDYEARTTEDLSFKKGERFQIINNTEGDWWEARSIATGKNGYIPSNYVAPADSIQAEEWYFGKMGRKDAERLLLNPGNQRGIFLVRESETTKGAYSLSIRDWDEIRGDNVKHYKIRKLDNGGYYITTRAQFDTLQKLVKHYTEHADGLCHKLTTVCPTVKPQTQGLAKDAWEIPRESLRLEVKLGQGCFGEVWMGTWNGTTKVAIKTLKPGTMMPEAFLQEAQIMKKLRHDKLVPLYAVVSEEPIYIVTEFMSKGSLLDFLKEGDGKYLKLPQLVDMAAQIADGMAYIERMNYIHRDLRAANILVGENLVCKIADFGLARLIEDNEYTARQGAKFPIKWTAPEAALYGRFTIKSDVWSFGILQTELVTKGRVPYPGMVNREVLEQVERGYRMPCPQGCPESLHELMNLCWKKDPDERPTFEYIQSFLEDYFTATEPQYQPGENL
Procedure, shortened: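 Yes (h) (5-10 mU) with 0.1 mg/ml poly(Glu, Tyr) 4:1 in 8 mM MOPS pH 7.0, 0.2 mM EDTA, 10 mM MgAcetate and [γ-^33P-ATP], 40 minutes at room temperature. Stopped with phosphoric acid; substrate-bound ^33P counted on glass-fiber filter by scintillation.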

Abl (h), sequence (P00519 whole entry): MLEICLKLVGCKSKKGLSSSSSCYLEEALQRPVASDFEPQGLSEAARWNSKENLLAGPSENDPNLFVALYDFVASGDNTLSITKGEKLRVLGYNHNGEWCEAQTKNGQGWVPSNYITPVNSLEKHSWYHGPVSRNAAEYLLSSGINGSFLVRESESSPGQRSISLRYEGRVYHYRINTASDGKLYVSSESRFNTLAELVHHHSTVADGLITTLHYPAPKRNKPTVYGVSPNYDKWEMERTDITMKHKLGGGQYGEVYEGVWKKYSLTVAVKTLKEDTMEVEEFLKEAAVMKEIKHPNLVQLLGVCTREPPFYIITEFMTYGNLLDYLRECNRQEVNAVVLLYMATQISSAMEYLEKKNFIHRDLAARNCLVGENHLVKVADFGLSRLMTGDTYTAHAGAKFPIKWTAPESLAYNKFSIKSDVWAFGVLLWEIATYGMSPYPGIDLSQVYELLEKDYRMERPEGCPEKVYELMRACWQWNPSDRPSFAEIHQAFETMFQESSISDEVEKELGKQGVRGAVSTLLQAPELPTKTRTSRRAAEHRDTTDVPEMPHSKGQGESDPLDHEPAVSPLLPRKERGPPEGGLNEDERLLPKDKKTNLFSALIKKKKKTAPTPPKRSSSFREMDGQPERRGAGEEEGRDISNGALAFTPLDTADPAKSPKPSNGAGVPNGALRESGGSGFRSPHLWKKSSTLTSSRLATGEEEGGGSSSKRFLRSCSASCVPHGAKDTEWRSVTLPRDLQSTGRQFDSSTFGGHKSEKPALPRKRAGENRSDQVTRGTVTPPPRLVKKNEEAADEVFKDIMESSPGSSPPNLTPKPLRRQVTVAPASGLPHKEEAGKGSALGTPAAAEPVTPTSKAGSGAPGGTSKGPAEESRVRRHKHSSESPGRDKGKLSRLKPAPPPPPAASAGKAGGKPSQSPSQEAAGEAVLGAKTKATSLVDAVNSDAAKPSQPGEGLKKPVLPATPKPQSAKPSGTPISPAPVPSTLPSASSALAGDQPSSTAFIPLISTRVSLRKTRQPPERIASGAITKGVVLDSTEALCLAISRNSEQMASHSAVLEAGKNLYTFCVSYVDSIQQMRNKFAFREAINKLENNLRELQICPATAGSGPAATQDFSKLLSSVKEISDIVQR
CSK (h), sequence (P41240 whole entry): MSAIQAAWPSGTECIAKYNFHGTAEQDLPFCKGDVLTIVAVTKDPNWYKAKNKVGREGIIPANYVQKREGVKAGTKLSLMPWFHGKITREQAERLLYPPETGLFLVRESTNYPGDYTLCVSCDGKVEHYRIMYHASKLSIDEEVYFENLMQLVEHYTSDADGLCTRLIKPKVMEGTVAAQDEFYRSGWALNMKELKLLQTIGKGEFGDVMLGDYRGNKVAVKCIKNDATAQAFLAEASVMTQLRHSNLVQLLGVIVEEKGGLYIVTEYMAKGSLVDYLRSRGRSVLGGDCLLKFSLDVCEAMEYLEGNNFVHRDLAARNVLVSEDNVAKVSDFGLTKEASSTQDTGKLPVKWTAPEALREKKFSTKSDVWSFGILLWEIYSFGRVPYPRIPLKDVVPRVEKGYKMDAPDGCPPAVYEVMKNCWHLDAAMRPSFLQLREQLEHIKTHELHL

Row | Molecule | C1 score (inhibition of Abl human) (Abl (h)) | C2 score (inhibition of CSK human) (CSK (h)) | C3 score (inhibition of cSRC human) (cSRC (h)) | C4 score (inhibition of Fes human) (Fes (h)) | C8 score (inhibition of GSK3β human) (GSK3B (h)) | C10 score (inhibition of Lyn human) (Lyn (h)) | C11 score (inhibition of Yes human) (Yes (h)) | inhibition at 1 µM (Abl (h)) [%] | inhibition at 1 µM (CSK (h)) [%] | inhibition at 1 µM (cSRC (h)) [%] | inhibition at 1 µM (Fes (h)) [%] | inhibition at 1 µM (GSK3B (h)) [%] | inhibition at 1 µM (Lyn (h)) [%] | inhibition at 1 µM (Yes (h)) [%]
1 | 1H,7H-2,6: 12,8-dimetheno-14H-13,19,1,3,5,7-benzodioxatetraazacycloheneicosine, 22-bromo-15,16,17,18-tetrahydro-11-methoxy- [Compound 35] | 4 (Score 4=>80% inhibition) | 1 (Score 1=10-30% inhibition) | 1 (Score 1=10-30% inhibition) | 1 (Score 1=10-30% inhibition) | 1 (Score 1=10-30% inhibition) | 2 (Score 2=30-60% inhibition) | 3 (Score 3=60-80% inhibition) | – | – | – | – | – | – | –
2 | 12,8-metheno-6,2-nitrilo-7H-13,1,5,7,16,19-benzoxapentaazacyclodocosine-3-carbonitrile, 23-chloro-1,14,15,16,17,18,19,20-octahydro-11-methoxy-19-methyl-17-oxo- [Compound 32] | 3 (Score 3=60-80% inhibition) | 1 (Score 1=10-30% inhibition) | 4 (Score 4=>80% inhibition) | 4 (Score 4=>80% inhibition) | 4 (Score 4=>80% inhibition) | 4 (Score 4=>80% inhibition) | 4 (Score 4=>80% inhibition) | – | – | – | – | – | – | –
3 | N#Cc1cnc2nc1Nc1cccc(c1)OCC(=O)NCCCOc1cccc(c1)N2 [Compound 25, 14,21-dioxa-2,4,8,17,28-pentaazatetracyclo[20.3.1.1~3,7~.1~9,13~]octacosa-1(26),3,5,7(28),9,11,13(27),22,24-nonaene-6-carbonitrile, 16-oxo-] | – | – | – | – | – | – | – | 10 to 30 | 30 to 60 | 10 to 30 | 60 to 80 | 30 to 60 | 10 to 30 | 10 to 30
4 | N#Cc1cnc2nc1Nc1cccc(c1)OCC(=O)NCCCCOc1cccc(c1)N2 [Compound 26, 14,22-dioxa-2,4,8,17,29-pentaazatetracyclo[21.3.1.1~3,7~.1~9,13~]nonacosa-1(27),3,5,7(29),9,11,13(28),23,25-nonaene-6-carbonitrile, 16-oxo-] | – | – | – | – | – | – | – | 10 to 30 | 10 to 30 | 10 to 30 | 30 to 60 | 10 to 30 | 30 to 60 | 10 to 30
5 | N#Cc1cnc2nc1Nc1cccc(c1)OCCCNC(=O)COc1cccc(c1)N2 [Compound 28, 14,21-dioxa-2,4,8,18,28-pentaazatetracyclo[20.3.1.1~3,7~.1~9,13~]octacosa-1(26),3,5,7(28),9,11,13(27),22,24-nonaene-6-carbonitrile, 19-oxo-] | – | – | – | – | – | – | – | 10 to 30 | 10 to 30 | 30 to 60 | 10 to 30 | 60 to 80 | 10 to 30 | 60 to 80
6 | COc1ccc2c(c1)OCCCCCCOc1ccc(Cl)cc1Nc1cc(ncn1)N2 [Compound 34, 11H-6,10-metheno-5H-dibenzo[b,k][1,13,4,6,8,10]dioxatetraazacyclononadecine, 13-chloro-17,18,19,20,21,22-hexahydro-2-methoxy-] | – | – | – | – | – | – | – | – | 10 to 30 | 10 to 30 | 10 to 30 | – | 10 to 30 | 10 to 30
7 | COc1ccc2cc1OCCCCCCOc1ccc(Br)cc1Nc1cc(ncn1)N2 [Compound 36, 1H,7H-2,6: 12,8-dimetheno-13,20,1,3,5,7-benzodioxatetraazacyclodocosine, 23-bromo-14,15,16,17,18,19-hexahydro-11-methoxy-] | 2 (Score 2=30-60% inhibition) | 1 (Score 1=10-30% inhibition) | 1 (Score 1=10-30% inhibition) | 1 (Score 1=10-30% inhibition) | – | 3 (Score 3=60-80% inhibition) | 1 (Score 1=10-30% inhibition) | – | – | – | – | – | – | –
8 | COc1ccc2cc1OCCCCCCCOc1ccc(Br)cc1Nc1cc(ncn1)N2 [Compound 37, 1H,7H-2,6: 12,8-dimetheno-14H-13,21,1,3,5,7-benzodioxatetraazacyclotricosine, 24-bromo-15,16,17,18,19,20-hexahydro-11-methoxy-] | 2 (Score 2=30-60% inhibition) | 1 (Score 1=10-30% inhibition) | 1 (Score 1=10-30% inhibition) | 1 (Score 1=10-30% inhibition) | 1 (Score 1=10-30% inhibition) | 2 (Score 2=30-60% inhibition) | 1 (Score 1=10-30% inhibition) | – | – | – | – | – | – | –
9 | COc1ccc2cc1OCCNC(=O)CNC(=O)Cc1ccc(Cl)cc1Nc1cc(ncn1)N2 [Compound 103, 1H,7H-6,2:12,8-dimetheno-13,1,3,5,7,16,19-benzoxahexaazacyclotricosine-17,20(14H)-dione, 24-chloro-15,16,18,19,21-pentahydro-11-methoxy-] | – | – | – | – | – | – | – | > 80 | 30 to 60 | > 80 | 60 to 80 | 10 to 30 | > 80 | > 80
10 | COc1ccc2cc1OCCCNC(=O)C(C)(C)NC(=O)Cc1ccc(Cl)cc1Nc1cc(ncn1)N2 [Compound 105, 6,2:8,12-dimetheno-7H-13,1,3,5,7,17,20-benzoxahexaazacyclotetracosine-18,21-dione, 25-chloro-1,14,15,16,17,19,20,22-octahydro-11-methoxy-19,19-dimethyl-] | – | – | – | – | – | – | – | > 80 | 30 to 60 | > 80 | 60 to 80 | 10 to 30 | > 80 | > 80
11 | CC1(C)NC(=O)Cc2ccc(Cl)cc2Nc2cc(ncn2)Nc2ccc(OCCCN3CCOCC3)c(c2)OCCNC1=O [Compound 106, 1H,7H-6,2:8,12-dimetheno-13,1,3,5,7,16,19-benzoxahexaazacyclotricosine-17,20(14H)-dione, 24-chloro-15,16,18,19,21-pentahydro-18,18-dimethyl-11-[3-(4-morpholinyl)propoxy]-] | – | – | – | – | – | – | – | > 80 | 60 to 80 | > 80 | > 80 | 10 to 30 | > 80 | > 80

Reference: patent US8148388B2, “2,4 (4,6) pyrimidine derivatives” (Janssen Pharmaceutica, N.V., priority 2004, dated 2012)
